The values that follow come from patent US8377923B2, “Triazole derivative or salt thereof” (Astellas Pharma Inc., priority 2008, dated 2013).

One may read the IC50 as the point on the concentration scale where inhibition reaches its midpoint. Usually fold induction stands for the signal under treatment as a multiple of the control signal. A lower fold induction goes with little rise in signal.

Where a name gives a salt, the structure may show the parent alone.

In series [1] the target is T1, human recombinant 11β-HSD1 (Homo sapiens, UniProt P28845).
T1 construct: made in house
T1 sequence (P28845 whole entry): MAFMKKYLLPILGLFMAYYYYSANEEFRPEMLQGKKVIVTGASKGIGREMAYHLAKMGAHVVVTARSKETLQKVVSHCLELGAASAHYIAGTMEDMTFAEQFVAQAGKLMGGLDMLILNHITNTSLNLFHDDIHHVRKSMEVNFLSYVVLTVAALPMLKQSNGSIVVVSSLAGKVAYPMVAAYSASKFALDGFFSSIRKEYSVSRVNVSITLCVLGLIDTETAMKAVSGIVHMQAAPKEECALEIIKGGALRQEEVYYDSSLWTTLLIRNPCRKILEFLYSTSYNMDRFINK
The experiment in a line: Measuring test for human 11β-HSD1 inhibitory activity (HTRF cortisol detection). It counts as biochemical. The following applies: human recombinant 11β-HSD1, 200 nM cortisone, 40 μM NADPH, pH 6.6, room temperature 1 h. The method, then: (§1) Test Method 1: Measuring Test for Human 11β-HSD1 and 11β-HSD2 Inhibitory Activities
The procedure for measuring 11β-HSD1-inhibitory action was as follows. In this connection, the enzyme reaction and measurement were carried out using a 384-well plate. The enzyme was prepared in accordance with a document (Walker E. A. et al., Journal of Biological Chemistry, 2001, vol. 276, p. 21343-21350). The reaction was carried out by adding the compound to be tested with various concentrations to a reaction liquid consisting of 10 mM phosphate buffer (pH 6.6), 200 nM cortisone, 40 μM reduced nicotinamide adenine dinucleotide phosphate (NADPH) and human recombinant 11β-HSD1, and then incubating the same at room temperature for one hour (10 μl/well). The compound to be tested was prepared by dissolving in dimethyl sulfoxide (DMSO) to a DMSO concentration of 1% in the reaction liquid. After the enzyme reaction was completed, the enzyme inhibitory action was measured by detecting cortisol using a homogeneous time-resolved fluorescence method (HTRF). Each of the XL-665-labeled cortisol containing 400 μM carbenoxolone and cryptate-labeled cortisol antibody (CIS bio international Co., Ltd.) was added in 5 μl/well portions and incubated at room temperature for 2 hours, and then the fluorescence intensity was measured using a fluorophotometer (trade name: Discovery, Perkin Elmer Inc.), and the enzyme inhibitory action was calculated from the fluorescence intensity ratio at two wavelengths (665 nm/620 nm).
(§2) The measured result was calculated by averaging the values of 3 wells of the same condition. The ratio when DMSO was added instead of the compound to be tested was regarded as 0% and the ratio when 11β-HSD1 or 11β-HSD2 was not added was regarded as 100%, thereby calculating 50% inhibition concentration of the compound to be tested as IC50 of the compound inhibitory action.
A general note: In TR-FRET formats the signal depends on donor and acceptor labels being close together.

Series [2] deals with T2, human recombinant 11β-HSD2 (Homo sapiens, UniProt P80365).
T2 sequence (P80365 1-405): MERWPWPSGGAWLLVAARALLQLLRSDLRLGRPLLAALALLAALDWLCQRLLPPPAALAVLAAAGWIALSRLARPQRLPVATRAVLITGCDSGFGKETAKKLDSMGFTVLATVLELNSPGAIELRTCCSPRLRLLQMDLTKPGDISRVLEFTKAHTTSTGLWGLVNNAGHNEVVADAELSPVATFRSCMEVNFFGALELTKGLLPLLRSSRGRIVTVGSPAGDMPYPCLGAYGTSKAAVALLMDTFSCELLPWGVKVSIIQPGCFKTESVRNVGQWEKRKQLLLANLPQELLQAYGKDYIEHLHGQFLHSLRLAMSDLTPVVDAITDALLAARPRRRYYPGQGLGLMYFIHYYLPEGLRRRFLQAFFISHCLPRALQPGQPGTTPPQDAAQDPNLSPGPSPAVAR
Description: Measuring test for human 11β-HSD2 inhibitory activity (HTRF cortisol detection). It counts as biochemical. The following applies: human recombinant 11β-HSD2, 200 nM cortisol, 200 μM NAD, pH 8.0, 37° C. 2 h. How it is done:
as §1
Measurement of the 11β-HSD2 inhibitory activity was carried out in the same manner as in the 11β-HSD1 inhibitory activity measurement, except for the enzyme reaction conditions. The enzyme reaction was carried out by adding the compound to be tested with various concentrations to a reaction liquid consisting of 40 mM Tris-HCl buffer (pH 8.0), 200 nM cortisol, 200 μM nicotinamide adenine dinucleotide (NAD) and human recombinant 11β-HSD2, and then incubating the same at 37° C. for 2 hours (10 μl/well).
as §2

Another series relates to male ddY mice. Description: Scopolamine-induced impairment of spontaneous alternation behavior test (Y-maze). The class given is in vivo, mouse. The note with it: oral, scopolamine 0.5 mg/kg i.p., Y-maze 8 minutes. The method, then:
Test Method 5: Scopolamine-Induced Impairment of Spontaneous Alternation Behavior Test
The compound to be tested was orally administered to male ddY mice of 5 to 7 weeks of age and scopolamine was intraperitoneally administered at 0.5 mg/kg after 10 minutes. After more 20 minutes, the animals were put in a Y-maze having arms of equivalent lengths into three directions and were allowed to freely search for 8 minutes. In this time, spontaneous alternation behavior to the arm (consecutive approach three times to different arms) was counted and a spontaneous alternation rate (spontaneous alternation behavior÷(approach number−2)×100) was calculated to evaluate pharmaceutical efficacy.

The next series has as its system ob/ob mice. Description: Ob/ob mouse blood-glucose lowering test. It counts as in vivo. The following applies: bid, oral, 14 days, male ob/ob mice, 12 hours after final administration. The method, then: Test Method 2: Ob/Ob Mouse Blood-Glucose Lowering Test
A compound liquid was prepared using 6% 2-hydroxypropyl-β-cyclodextrin as a solvent. Using 7 weeks-old male ob/ob mice (blood-glucose level of 300 mg/dL or more), blood-glucose levels were measured under non-fasting conditions and then the mice were divided into groups so that the blood-glucose levels became uniform among the groups. The compound to be tested was orally administered twice per day repeatedly for 14 days (3 or 10 mg/kg, bid) and a basal blood-glucose level was measured 12 hours after final administration (n=6 to 10). Similarly, the compound to be tested was orally administered twice per day repeatedly for […] (3 or 10 mg/kg, bid) and a blood glucose at fasting was measured under fasting conditions 12 hours after final administration. The blood-glucose level was measured by carrying out colorimetric determination of the amount of glucose (mg/dl) in heparin blood plasma obtained by collecting blood in a heparin-coated glass capillary and subsequently centrifuging the same.

Series [3] concerns CYP3A (human CYP3A gene promoter, via PXR). Description: Human CYP3A enzyme inducibility test (PXR/CYP3A promoter luciferase reporter in HepG2). It counts as cell-based. The note with it: HepG2 cells, 16 hours after addition of the drug. How it is done:
Test Method 6: Human CYP3A Enzyme Inducibility Test
3E+6 (n) Human hepatoma-derived cell lines, HepG2, were seeded on a 10 cm collagen-coated dish. Human PXR expression vectors, luciferase reporter vector in which a human CYP3A gene promoter region is inserted, and renilla expression vector as a control were transiently introduced 6 hours after cell seeding. The entire cells were further seeded on 384-well plates 16 hours after introduction, and a drug dissolved in DMSO was added thereto 6 hours after seeding. Luciferase activity of the reporter gene and control gene were measured 16 hours after addition of the drug, a value corrected by a control was regarded as an active value, and the value obtained by dividing by an activity value in which no drug was added was calculated as a fold induction.
A general note: Reporter assays use an easily measured gene product as a stand-in for the process of interest.

For the molecule `Cn1c(-c2ccccc2C(F)(F)F)nnc1C(C)(C)Oc1ccc(Cl)cc1` [Example 64, 3-[1-(4-chlorophenoxy)-1-methylethyl]-4-methyl-5-[2-(trifluoromethyl)phenyl]-4H-1,2,4-triazole monohydrochloride], the half-inhibitory concentration (IC50) in series [1] was 0.003 µM; in series [2] it was over 3 µM. The “Minimal effective dose for spontaneous alternation rate” value (shortened to “Minimal effective dose”) in the series with male ddY mice was found to be 0.001 mg/kg.
The matching figures for `Cn1c(-c2ccc(F)cc2Cl)nnc1C(C)(C)Oc1c(F)cc(F)cc1F` [Example 65, 3-(2-chloro-4-fluorophenyl)-4-methyl-5-[1-methyl-1-(2,4,6-trifluorophenoxy)ethyl]-4H-1,2,4-triazole monohydrochloride]: 0.0053 µM, over 3 µM and 0.01 mg/kg.
With `Cn1c(-c2ccccc2C(F)(F)F)nnc1C(C)(C)Oc1ccc(Cl)cc1-c1nnco1` [Example 69, 2-[5-chloro-2-(1-methyl-1-{4-methyl-5-[2-(trifluoromethyl)phenyl]-4H-1,2,4-triazol-3-yl}ethoxy)phenyl]-1,3,4-oxadiazole], the half-maximal inhibitory concentration (IC50) is 0.0055 µM in series [1] and over 3 µM in series [2]. In addition, the “Basal blood-glucose lowering activity (%)” value in the series with ob/ob mice (10 mg/kg) is listed as 32% (10 mg/kg).
For `CCn1c(-c2ccc3cn[nH]c3c2)nnc1C(C)(C)Oc1c(F)cc(Cl)cc1F` [Example 83, 6-{5-[1-(4-chloro-2,6-difluorophenoxy)-1-methylethyl]-4-ethyl-4H-1,2,4-triazol-3-yl}-1H-indazole], the values for the IC50 in series [1] and in series [2] were 0.023 µM and over 10 µM, respectively.
On to `CCn1c(N2CCc3[nH]ncc3C2)nnc1C(C)(C)Oc1c(F)cc(F)cc1F` [Example 87, 5-{4-ethyl-5-[1-methyl-1-(2,4,6-trifluorophenoxy)ethyl]-4H-1,2,4-triazol-3-yl}-4,5,6,7-tetrahydro-1H-pyrazolo[4,3-c]pyridine dihydrochloride], for which the IC50 was 0.013 µM in series [1] and over 10 µM in series [2].
For `C[C@H](Oc1ccc(C(N)=O)cc1Br)c1nnc(-c2ccccc2C(F)(F)F)n1C` [Example 127] the same measures were 0.0087 µM and over 3 µM.
For the molecule `Cn1c(-c2ccccc2C(F)(F)F)nnc1C(C)(C)Oc1ccc(Br)cn1` [Example 148], the IC50 in series [1] was 0.0046 µM; in series [2] it was over 3 µM. Moreover, in the series with male ddY mice, the “Minimal effective dose” value is recorded as 0.03 mg/kg.
Consider `Cn1c(-c2ccc(C(N)=O)cc2Cl)nnc1C(C)(C)Oc1c(F)cc(F)cc1F` [Example 175], for which the IC50 in series [1] is 0.003 µM; in series [2], over 3 µM. In addition, the “Basal blood-glucose lowering activity (%)” value with ob/ob mice (3 mg/kg) was 20% (3 mg/kg). Besides, the fold induction at 16 h, 3 µM in series [3] is 1.24.
`Cn1c(-c2ccc(C(N)=O)cc2Cl)nnc1C(C)(C)Oc1c(F)cc(Cl)cc1F` [Example 185]: the results for the concentration for half-maximal inhibition (IC50) in series [1] and in series [2] were 0.0029 µM and over 3 µM, respectively.
On to `Cn1c(-c2ccc(C(N)=O)cc2F)nnc1C(C)(C)Oc1c(F)cc(Cl)cc1F` [Example 186], for which the IC50 in series [1] was 0.0033 µM; in series [2], over 3 µM. In addition, in the series on ob/ob mice (3 mg/kg), the “Basal blood-glucose lowering activity (%)” value was 23% (3 mg/kg). For the same molecule, the “Minimal effective dose” value in the series with male ddY mice worked out at 0.03 mg/kg.
`Cn1c(-c2ccccc2C(F)(F)F)nnc1C(C)(C)Oc1ccc(C(F)(F)F)cc1Cl` [Example 204]: the results for the 50% inhibitory concentration (IC50) in series [1] and in series [2] were 0.12 µM and over 10 µM, respectively. Also, the “Basal blood-glucose lowering activity (%)” value in the series on ob/ob mice (10 mg/kg) was 29% (10 mg/kg).
Regarding `Cn1c(-c2ccc(F)cc2Br)nnc1C(C)(C)Oc1ccc(Cl)cc1` [Example 215], the IC50 is 0.012 µM in series [1] and over 10 µM in series [2]. Moreover, the “Minimal effective dose” value with male ddY mice came out at 0.01 mg/kg.
For `CC(C)(Oc1ccc(F)cc1F)c1nnc(-c2ccc(C(N)=O)cc2F)n1C1CC1` [Example 355], the results for the IC50 in series [1] and in series [2] were 0.027 µM and over 10 µM, respectively.
`Cn1c(-c2ccc(F)c3ccccc23)nnc1C(C)(C)Oc1c(F)cc(F)cc1F` [Example 373]: the values for the IC50 in series [1] and in series [2] were 0.1 µM and over 100 µM, respectively.
`Cn1c(-c2cc(Cl)ccc2Cl)nnc1C(C)(C)Oc1c(F)cc(F)cc1F` [Example 374]: the IC50 is 0.05 µM in series [1] and over 30 µM in series [2].
With `CCn1c(-c2ccc(C(N)=O)cc2)nnc1C(C)(C)Oc1c(F)cc(Cl)cc1F` [Example 509], the IC50 in series [1] was 0.021 µM; in series [2], over 10 µM. Besides, the “Minimal effective dose” value in the series on male ddY mice came out at 0.01 mg/kg.
Turning to `CCn1c(-c2ccc3c(c2)CNC3=O)nnc1C(C)(C)Oc1c(F)cc(F)cc1F` [Example 518], the IC50 is 0.008 µM in series [1] and over 3 µM in series [2].
For `CC(C)(Oc1cc(F)c(F)cc1F)c1nnc(-c2ccc(C(N)=O)cc2F)n1C1CC1` [Example 525] the same measures were 0.029 µM and over 10 µM.
As for `CC(C)n1c(-c2ccc(C(N)=O)cc2)nnc1C(C)(C)Oc1c(F)cc(F)cc1F` [Example 531], the IC50 in series [1] is 0.05 µM; in series [2], over 10 µM.
`CC(C)n1c(-c2ccc(C(N)=O)cc2)nnc1C(C)(C)Oc1c(F)cc(Cl)cc1F` [Example 535]: the 50% inhibitory concentration (IC50) was 0.054 µM in series [1] and over 10 µM in series [2]. In addition, the “Minimal effective dose” value in the series with male ddY mice stood at 0.01 mg/kg.
In the case of `Cn1c(-c2ccncc2C(F)(F)F)nnc1C(C)(C)Oc1c(F)cc(Cl)cc1F` [Example 544], the half-inhibitory concentration (IC50) in series [1] was 0.015 µM; in series [2], over 10 µM.
For `Cn1cc(-c2nnc(C(C)(C)Oc3c(F)cc(F)cc3F)n2C2CC2)c(Cl)n1` [Example 545] the same measures were 0.073 µM and over 10 µM.
Turning to `CC(C)(Oc1c(F)cc(Cl)cc1F)c1nnc(-c2cc3c(cc2F)C(=O)NC3)n1C1CC1` [Example 580], the IC50 in series [1] was 0.01 µM; in series [2], over 3 µM.
Take `Cn1c(-c2sc(N)nc2C(F)(F)F)nnc1C(C)(C)Oc1c(F)cc(Cl)cc1F` [Example 587]: the concentration for half-maximal inhibition (IC50) was 0.013 µM in series [1] and over 3 µM in series [2].
The matching figures for `CC(C)n1c(-c2ccc(C(N)=O)cc2)nnc1C(C)(C)Oc1c(F)cccc1F` [Example 616]: 0.02 µM and over 10 µM.
